Key:
Assay type in all cases: biochemical
Human JAK3 = Human JAK3 (Homo sapiens (Human), UniProt P52333); experiment: In vitro kinase inhibition test, JAK3 (33P-ATP filter scintillation); conditions: compound at 1 uM; read-out: JAK3 kinase-phosphorylation inhibitory level (% inhibition)
Protocol: (§1) 1. In Vitro Kinase Inhibition Test
(§2) Kinases used were human-derived JAK1, JAK2, JAK3, and TYK2 (Millipore, Germany). Each of these kinases was diluted with a suitable buffer solution as described below, and then mixed with reagents.
(§3) 3-morpholinopropane-1-sulfonic acid (MOPS) and EDTA were dissolved in distilled water at a concentration of 20 mM and 1 mM, respectively, and 100 uL of β-mercaptoethanol, 10 uL of Brij-35™, 5 mL of glycerol, and 100 mg of bovine serum albumin (BSA), each per 100 mL of the solution, were added to the solution, thereby preparing a JAK2, JAK3, and TYK2 dilution buffer solution.
(§4) Each compound was dissolved in a 100% DMSO solution at a 50 uM concentration. This solution was reacted with reagents in wells on a 96-well plate to reach a final concentration of 1 uM. Detailed experimental methods for each kinase are described below.
(§5) After reaction for about 40 minutes at room temperature, the reaction was stopped by adding 5 uL of a 3% (v/v) phosphoric acid solution.
(§6) In Tables 5 and 6, the numbers in the “Example” column, which are identification numbers of the examples, indicate the compounds synthesized in the corresponding examples, the values in the “JAK1”, “JAK2”, “JAK3”, and “TYK2” columns represent kinase-phosphorylation inhibitory levels as a percentage (%) of the compounds synthesized in the corresponding examples at a 1 uM concentration. In Tables 5 and 6, negative values substantially indicate no inhibitory effect.
(§7) The inhibitory levels (% inhibition) represent a percentage of reduction in phosphorylation activity in each test group with respect to the phosphorylation activity of a corresponding kinase in a negative control group lacking any of the compounds synthesized in the examples. % inhibition=[(Scintillation value of Test compound non-treatment group−Scintillation value of Test compound treatment group)/(Scintillation value of Test compound non-treatment group)]×100

Human JAK1 = Human JAK1 (Homo sapiens (Human), UniProt P23458); experiment: In vitro kinase inhibition test, JAK1 (33P-ATP filter scintillation); conditions: compound at 1 uM; read-out: JAK1 kinase-phosphorylation inhibitory level (% inhibition)
Chain of Human JAK1 (P23458 whole entry): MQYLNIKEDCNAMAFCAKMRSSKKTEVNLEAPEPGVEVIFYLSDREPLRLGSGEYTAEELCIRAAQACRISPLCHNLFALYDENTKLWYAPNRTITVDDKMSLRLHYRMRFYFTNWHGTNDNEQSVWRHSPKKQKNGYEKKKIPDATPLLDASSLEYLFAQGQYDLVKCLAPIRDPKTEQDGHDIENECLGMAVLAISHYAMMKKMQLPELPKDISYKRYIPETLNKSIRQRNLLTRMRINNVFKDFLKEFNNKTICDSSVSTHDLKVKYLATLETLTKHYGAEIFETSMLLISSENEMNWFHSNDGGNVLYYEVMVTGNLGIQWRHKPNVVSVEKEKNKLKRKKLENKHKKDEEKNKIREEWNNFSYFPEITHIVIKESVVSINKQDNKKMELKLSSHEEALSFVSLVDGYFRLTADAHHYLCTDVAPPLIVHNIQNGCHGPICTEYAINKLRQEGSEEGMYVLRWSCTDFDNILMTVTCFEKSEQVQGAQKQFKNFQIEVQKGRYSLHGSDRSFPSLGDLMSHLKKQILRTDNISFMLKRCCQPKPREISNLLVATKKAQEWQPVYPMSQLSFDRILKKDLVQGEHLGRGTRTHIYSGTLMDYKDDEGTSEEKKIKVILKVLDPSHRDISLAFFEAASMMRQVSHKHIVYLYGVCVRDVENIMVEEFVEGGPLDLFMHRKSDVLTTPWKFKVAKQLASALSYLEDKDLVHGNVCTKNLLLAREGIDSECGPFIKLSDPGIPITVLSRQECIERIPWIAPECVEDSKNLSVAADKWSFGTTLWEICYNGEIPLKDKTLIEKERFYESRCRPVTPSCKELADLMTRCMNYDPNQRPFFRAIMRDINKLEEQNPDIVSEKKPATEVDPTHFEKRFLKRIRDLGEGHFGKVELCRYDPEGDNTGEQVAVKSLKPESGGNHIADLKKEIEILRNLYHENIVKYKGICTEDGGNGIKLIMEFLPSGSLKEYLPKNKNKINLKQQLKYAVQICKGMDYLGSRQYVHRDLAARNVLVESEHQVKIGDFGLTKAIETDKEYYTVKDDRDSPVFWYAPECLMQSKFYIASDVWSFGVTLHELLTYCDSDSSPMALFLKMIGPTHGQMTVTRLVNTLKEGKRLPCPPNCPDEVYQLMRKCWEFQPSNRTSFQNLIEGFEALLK
Protocol: as §1, §2
Tris(hydroxymethyl)aminomethane (TRIS) and ethylenediaminetetraacetic acid (EDTA) were dissolved in distilled water at a concentration of 20 mM and 0.2 mM, respectively, and 100 uL of β-mercaptoethanol, 10 uL of Brij-35™, and 5 mL of glycerol, each per 100 mL of the solution, were added to the solution, thereby preparing a JAK1 dilution buffer solution.
as §4
After reaction for about 40 minutes at room temperature, the reaction was stopped by adding 5 uL of a 3% (v/v) phosphoric acid solution. […] The methanol drying is a drying process using an azeotropic effect, wherein methanol is added into an aqueous solution for drying.
as §6, §7

Human TYK2 = Human TYK2 (Homo sapiens (Human), UniProt P29597); experiment: In vitro kinase inhibition test, TYK2 (33P-ATP filter scintillation); conditions: compound at 1 uM; read-out: TYK2 kinase-phosphorylation inhibitory level (% inhibition)
Chain of Human TYK2 (P29597 whole entry): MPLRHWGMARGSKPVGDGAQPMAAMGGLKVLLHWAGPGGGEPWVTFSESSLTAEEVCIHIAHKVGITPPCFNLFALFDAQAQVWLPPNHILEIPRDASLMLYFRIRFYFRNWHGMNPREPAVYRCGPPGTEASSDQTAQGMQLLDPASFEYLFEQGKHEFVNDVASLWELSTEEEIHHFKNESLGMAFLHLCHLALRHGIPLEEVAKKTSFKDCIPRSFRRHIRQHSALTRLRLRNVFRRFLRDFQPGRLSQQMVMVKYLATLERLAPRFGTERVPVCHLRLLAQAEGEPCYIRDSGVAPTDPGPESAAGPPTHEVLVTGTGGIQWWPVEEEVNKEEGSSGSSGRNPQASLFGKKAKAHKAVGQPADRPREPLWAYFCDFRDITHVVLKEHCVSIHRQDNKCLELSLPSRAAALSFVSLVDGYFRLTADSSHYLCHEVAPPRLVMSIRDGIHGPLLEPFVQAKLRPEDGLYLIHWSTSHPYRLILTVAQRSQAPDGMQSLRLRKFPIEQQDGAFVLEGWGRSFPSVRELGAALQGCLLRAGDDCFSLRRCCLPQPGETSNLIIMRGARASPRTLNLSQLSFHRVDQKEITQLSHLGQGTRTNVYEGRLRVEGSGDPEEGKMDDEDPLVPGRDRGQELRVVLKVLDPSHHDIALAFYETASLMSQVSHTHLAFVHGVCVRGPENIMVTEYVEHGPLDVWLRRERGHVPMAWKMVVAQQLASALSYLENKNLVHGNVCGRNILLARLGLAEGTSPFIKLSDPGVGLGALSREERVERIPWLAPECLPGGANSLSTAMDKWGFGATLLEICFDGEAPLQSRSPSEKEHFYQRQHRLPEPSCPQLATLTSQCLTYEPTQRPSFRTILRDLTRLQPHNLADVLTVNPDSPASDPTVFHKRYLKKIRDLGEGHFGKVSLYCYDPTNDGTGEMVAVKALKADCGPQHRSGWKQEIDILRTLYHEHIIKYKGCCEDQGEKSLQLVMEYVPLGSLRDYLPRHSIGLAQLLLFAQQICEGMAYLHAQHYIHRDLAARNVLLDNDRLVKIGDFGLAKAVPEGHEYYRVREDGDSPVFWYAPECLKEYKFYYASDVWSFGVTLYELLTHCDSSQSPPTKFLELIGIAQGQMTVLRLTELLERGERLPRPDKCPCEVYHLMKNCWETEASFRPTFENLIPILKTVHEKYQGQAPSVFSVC
Protocol: as §1, §2, §3, §4, §5, §6, §7

Human JAK2 = Human JAK2 (Homo sapiens (Human), UniProt O60674); experiment: In vitro kinase inhibition test, JAK2 (33P-ATP filter scintillation); conditions: compound at 1 uM; read-out: JAK2 kinase-phosphorylation inhibitory level (% inhibition)
Chain of Human JAK2 (O60674 whole entry): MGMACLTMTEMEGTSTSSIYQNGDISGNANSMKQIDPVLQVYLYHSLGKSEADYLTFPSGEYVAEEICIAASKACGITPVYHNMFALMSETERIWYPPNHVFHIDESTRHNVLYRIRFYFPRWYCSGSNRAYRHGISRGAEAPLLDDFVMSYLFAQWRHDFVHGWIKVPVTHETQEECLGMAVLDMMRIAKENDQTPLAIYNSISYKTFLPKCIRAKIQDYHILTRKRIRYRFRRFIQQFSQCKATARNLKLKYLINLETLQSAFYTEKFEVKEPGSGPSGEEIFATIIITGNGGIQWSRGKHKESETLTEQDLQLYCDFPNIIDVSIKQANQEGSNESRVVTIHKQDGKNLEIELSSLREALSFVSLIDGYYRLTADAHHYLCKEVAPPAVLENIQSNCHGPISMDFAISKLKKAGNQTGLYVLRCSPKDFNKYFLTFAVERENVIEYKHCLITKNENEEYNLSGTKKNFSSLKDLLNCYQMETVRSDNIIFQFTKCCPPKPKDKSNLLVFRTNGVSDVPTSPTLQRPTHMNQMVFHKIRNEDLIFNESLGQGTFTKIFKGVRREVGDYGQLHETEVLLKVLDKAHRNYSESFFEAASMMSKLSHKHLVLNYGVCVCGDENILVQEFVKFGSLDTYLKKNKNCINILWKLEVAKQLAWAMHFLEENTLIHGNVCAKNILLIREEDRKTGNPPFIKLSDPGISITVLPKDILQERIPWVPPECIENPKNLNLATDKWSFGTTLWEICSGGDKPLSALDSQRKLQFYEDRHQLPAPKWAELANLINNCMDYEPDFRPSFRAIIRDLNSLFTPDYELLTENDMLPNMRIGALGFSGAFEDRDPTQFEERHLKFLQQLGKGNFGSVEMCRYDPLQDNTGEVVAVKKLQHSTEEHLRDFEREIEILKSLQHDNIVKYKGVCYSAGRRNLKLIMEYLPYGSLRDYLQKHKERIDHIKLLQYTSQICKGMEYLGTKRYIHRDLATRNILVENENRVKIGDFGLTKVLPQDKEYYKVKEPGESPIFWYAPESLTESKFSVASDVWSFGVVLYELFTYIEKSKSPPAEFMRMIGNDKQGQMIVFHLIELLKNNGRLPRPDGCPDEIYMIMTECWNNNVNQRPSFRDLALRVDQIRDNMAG
Protocol: as §1, §2, §3, §4, §5, §6, §7

Chain of Human JAK3 (P52333 whole entry): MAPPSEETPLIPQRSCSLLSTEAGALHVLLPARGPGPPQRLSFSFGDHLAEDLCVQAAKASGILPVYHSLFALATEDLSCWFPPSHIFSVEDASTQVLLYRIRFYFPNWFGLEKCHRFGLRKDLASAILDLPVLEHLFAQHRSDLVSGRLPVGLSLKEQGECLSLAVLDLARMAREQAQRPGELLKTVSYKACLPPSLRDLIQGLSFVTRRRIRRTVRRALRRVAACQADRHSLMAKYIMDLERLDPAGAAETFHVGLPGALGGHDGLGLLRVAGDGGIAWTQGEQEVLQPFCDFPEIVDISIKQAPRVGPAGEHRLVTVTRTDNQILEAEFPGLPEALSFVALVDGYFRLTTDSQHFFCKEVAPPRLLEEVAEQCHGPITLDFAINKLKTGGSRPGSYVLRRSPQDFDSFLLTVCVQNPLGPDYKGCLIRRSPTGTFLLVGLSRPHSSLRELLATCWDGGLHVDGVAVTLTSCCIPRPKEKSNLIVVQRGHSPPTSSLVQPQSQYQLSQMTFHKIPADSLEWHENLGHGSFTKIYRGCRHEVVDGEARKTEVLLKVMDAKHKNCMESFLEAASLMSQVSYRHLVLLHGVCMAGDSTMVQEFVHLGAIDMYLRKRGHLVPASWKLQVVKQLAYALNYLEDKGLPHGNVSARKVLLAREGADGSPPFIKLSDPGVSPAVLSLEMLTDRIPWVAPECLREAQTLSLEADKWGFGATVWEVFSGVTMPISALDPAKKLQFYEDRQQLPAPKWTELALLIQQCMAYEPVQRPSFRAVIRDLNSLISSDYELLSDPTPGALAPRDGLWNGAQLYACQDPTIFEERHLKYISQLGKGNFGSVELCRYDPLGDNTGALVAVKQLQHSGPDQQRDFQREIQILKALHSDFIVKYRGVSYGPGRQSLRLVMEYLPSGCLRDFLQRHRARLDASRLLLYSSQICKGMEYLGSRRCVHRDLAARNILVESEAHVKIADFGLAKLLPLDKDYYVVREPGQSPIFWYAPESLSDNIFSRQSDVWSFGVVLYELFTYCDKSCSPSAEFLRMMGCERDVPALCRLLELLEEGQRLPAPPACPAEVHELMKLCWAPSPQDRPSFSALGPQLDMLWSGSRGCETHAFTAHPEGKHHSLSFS

Structure (SMILES) | inhibition at 1 µM (Human JAK3) | inhibition at 1 µM (Human JAK1) | inhibition at 1 µM (Human TYK2) | inhibition at 1 µM (Human JAK2)
CCC(=O)N1C[C@@H](N(C)c2ncnc3[nH]ccc23)C2(CC2)C1 [Example 64, (S)-1-(7-(methyl(7H-pyrrolo[2,3-d]pyrimidin-4-yl)amino)-5-azaspiro[2.4]heptan-5-yl)propan-1-one] | -1% | 16% | 0% | -9%
CN(c1ncnc2[nH]ccc12)[C@H]1CN(C(=O)Nc2ccccc2-c2ccccc2)CC12CC2 [Example 30, (R)-N-([1,1′-biphenyl]-2-yl)-7-(methyl(7H-pyrrolo[2,3-d]pyrimidin-4-yl)amino)-5-azaspiro[2.4]heptane-5-carboxamide] | 14% | 80% | 27% | -11%
CN(c1ncnc2[nH]ccc12)[C@H]1CN(C(=O)Nc2cccc(Cl)c2Cl)CC12CC2 [Example 28, (R)-N-(2,3-dichlorophenyl)-7-(methyl(7H-pyrrolo[2,3-d]pyrimidin-4-yl)amino)-5-azaspiro[2.4]heptane-5-carboxamide] | 40% | 91% | 39% | 23%
CN(c1ncnc2[nH]ccc12)[C@H]1CN(C(=O)c2cccc(C#N)c2)CC12CC2 [Example 15, (R)-3-(7-(methyl(7H-pyrrolo[2,3-d]pyrimidin-4-yl)amino)-5-azaspiro[2.4]heptane-5-carbonyl)benzonitrile] | 13% | 76% | 43% | -15%
CN(c1ncnc2[nH]ccc12)[C@H]1CN(S(=O)(=O)c2ccccc2F)CC12CC2 [Example 37, (R)-N-(5-((2-fluorophenyl)sulfonyl)-5-azaspiro[2.4]heptan-7-yl)-N-methyl-7H-pyrrolo[2,3-d]pyrimidin-4-amine] | 61% | 98% | 90% | 84%
CNC(=O)CC(=O)N1CC(N(C)c2ncnc3[nH]ccc23)C2(CC2)C1 (stereo not drawn) [Example 57, N-methyl-3-(7-(methyl(7H-pyrrolo[2,3-d]pyrimidin-4-yl)amino)-5-azaspiro[2.4]heptan-5-yl)-3-oxopropanamide] | -9% | 55% | 11% | 7%
CC(=O)NCC(=O)N1CC(N(C)c2ncnc3[nH]ccc23)C2(CC2)C1 (stereo not drawn) [Example 56, N-(2-(7-(methyl(7H-pyrrolo[2,3-d]pyrimidin-4-yl)amino)-5-azaspiro[2.4]heptan-5-yl)-2-oxoethyl)acetamide] | 9% | 9% | -10% | -37%
CC(C)COC(=O)N1C[C@@H](N(C)c2ncnc3[nH]ccc23)C2(CC2)C1 [Example 70, isobutyl (S)-7-(methyl(7H-pyrrolo[2,3-d]pyrimidin-4-yl)amino)-5-azaspiro[2.4]heptane-5-carboxylate] | -3% | 31% | 5% | 24%
COCC(=O)N1CC(N(C)c2ncnc3[nH]ccc23)C2(CC2)C1 (stereo not drawn) [Example 53, 2-methoxy-1-(7-(methyl(7H-pyrrolo[2,3-d]pyrimidin-4-yl)amino)-5-azaspiro[2.4]heptan-5-yl)ethan-1-one] | 3% | 76% | 7% | -18%
CN(c1ncnc2[nH]ccc12)[C@H]1CN(C(=O)c2ccco2)CC12CC2 [Example 11, (R)-furan-2-yl(7-(methyl(7H-pyrrolo[2,3-d]pyrimidin-4-yl)amino)-5-azaspiro[2.4]heptan-5-yl)methanone] | 15% | 93% | 61% | 10%
CN(c1ncnc2[nH]ccc12)[C@@H]1CN(C(=S)CC#N)CC12CC2 [Example 69, (S)-3-(7-(methyl(7H-pyrrolo[2,3-d]pyrimidin-4-yl)amino)-5-azaspiro[2.4]heptan-5-yl)-3-thioxopropanenitrile] | 9% | 58% | 36% | 6%
CN(c1ncnc2[nH]ccc12)[C@H]1CN(S(=O)(=O)c2ccccc2[N+](=O)[O-])CC12CC2 [Example 43, (R)-N-methyl-N-(5-((2-nitrophenyl)sulfonyl)-5-azaspiro[2.4]heptan-7-yl)-7H-pyrrolo[2,3-d]pyrimidin-4-amine] | 75% | 97% | 78% | 70%
CN(c1ncnc2[nH]ccc12)[C@H]1CN(S(=O)(=O)c2cccc(F)c2)CC12CC2 [Example 38, (R)-N-(5-((3-fluorophenyl)sulfonyl)-5-azaspiro[2.4]heptan-7-yl)-N-methyl-7H-pyrrolo[2,3-d]pyrimidin-4-amine] | 84% | 100% | 97% | 97%
CN(c1ncnc2[nH]ccc12)[C@H]1CN(C(=O)c2cccnc2)CC12CC2 [Example 12, (R)-(7-(methyl(7H-pyrrolo[2,3-d]pyrimidin-4-yl)amino)-5-azaspiro[2.4]heptan-5-yl)(pyridin-3-yl)methanone] | 2% | 80% | 26% | -11%
CC(C)COC(=O)N1C[C@H](N(C)c2ncnc3[nH]ccc23)C2(CC2)C1 [Example 20, isobutyl (R)-7-(methyl(7H-pyrrolo[2,3-d]pyrimidin-4-yl)amino)-5-azaspiro[2.4]heptane-5-carboxylate] | 27% | 93% | 43% | 27%
CCCCN1C[C@H](N(C)c2ncnc3[nH]ccc23)C2(CC2)C1 [Example 1, (R)-N-(5-butyl-5-azaspiro[2.4]heptan-7-yl)-N-methyl-7H-pyrrolo[2,3-d]pyrimidin-4-amine] | 8% | 79% | -4% | -14%
CN(c1ncnc2[nH]ccc12)[C@H]1CN(C(=S)Nc2cc(C(F)(F)F)cc(C(F)(F)F)c2)CC12CC2 [Example 31, (R)-N-(3,5-bis(trifluoromethyl)phenyl)-7-(methyl(7H-pyrrolo[2,3-d]pyrimidin-4-yl)amino)-5-azaspiro[2.4]heptane-5-carbothioamide] | 13% | 62% | 1% | -26%
CN(c1ncnc2[nH]ccc12)[C@H]1CN(S(=O)(=O)c2ccc(C(F)(F)F)cc2)CC12CC2 [Example 48, (R)-N-methyl-N-(5-((4-(trifluoromethyl)phenyl)sulfonyl)-5-azaspiro[2.4]heptan-7-yl)-7H-pyrrolo[2,3-d]pyrimidin-4-amine] | 28% | 98% | 66% | 36%
CCC(=O)N1CC(N(C)c2ncnc3[nH]ccc23)C2(CC2)C1 (stereo not drawn) [Example 52, 1-(7-(methyl(7H-pyrrolo[2,3-d]pyrimidin-4-yl)amino)-5-azaspiro[2.4]heptan-5-yl)propan-1-one] | 17% | 58% | 20% | -22%
CC(C)CC(=O)N1C[C@H](N(C)c2ncnc3[nH]ccc23)C2(CC2)C1 [Example 6, (R)-3-methyl-1-(7-(methyl(7H-pyrrolo[2,3-d]pyrimidin-4-yl)amino)-5-azaspiro[2.4]heptan-5-yl)butan-1-one] | 18% | 90% | 46% | 21%
CN(c1ncnc2[nH]ccc12)[C@H]1CN(C(=S)CC#N)CC12CC2 [Example 19, (R)-3-(7-(methyl(7H-pyrrolo[2,3-d]pyrimidin-4-yl)amino)-5-azaspiro[2.4]heptan-5-yl)-3-thioxopropanenitrile] | 82% | 98% | 91% | 80%
